Reference: ChEMBL document CHEMBL3046389, “Synthesis and biological evaluation of novel hydroquinone dimethyl ethers as potential anticancer and antimicrobial agents” (2013)

Columns and labels:
Type in all cases: functional
[1] = test system: SN12C; assay: Anticancer activity against Homo sapiens (human) SN12C cells after 48 hr by SRB assay
[2] = test system: UACC-257; assay: Anticancer activity against Homo sapiens (human) UACC257 cells after 48 hr by SRB assay; conditions: UACC-257, 48 h
[3] = test system: OVCAR-5; assay: Anticancer activity against Homo sapiens (human) OVCAR5 cells after 48 hr by SRB assay; conditions: OVCAR-5, 48 h
[4] = test system: SNB-75; assay: Anticancer activity against Homo sapiens (human) SNB75 cells after 48 hr by SRB assay; conditions: SNB-75, 48 h
[5] = test system: IGROV-1; assay: Anticancer activity against Homo sapiens (human) IGROV1 cells after 48 hr by SRB assay; conditions: IGROV-1, 48 h
[6] = test system: RXF 393; assay: Anticancer activity against Homo sapiens (human) RXF393 cells after 48 hr by SRB assay; conditions: RXF 393, 48 h
[7] = test system: SF-268; assay: Anticancer activity against Homo sapiens (human) SF268 cells after 48 hr by SRB assay; conditions: SF-268, 48 h
[8] = test system: HOP-62; assay: Anticancer activity against Homo sapiens (human) HOP62 cells after 48 hr by SRB assay; conditions: HOP-62, 48 h
[9] = test system: A498; assay: Anticancer activity against Homo sapiens (human) A498 cells after 48 hr by SRB assay; conditions: A498, 48 h
[10] = test system: MCF7; assay: Anticancer activity against Homo sapiens (human) MCF7 cells after 48 hr by SRB assay; conditions: MCF7, 48 h
[11] = test system: HCT-15; assay: Anticancer activity against Homo sapiens (human) HCT15 cells after 48 hr by SRB assay; conditions: HCT-15, 48 h
[12] = test system: OVCAR-8; assay: Anticancer activity against Homo sapiens (human) OVCAR8 cells after 48 hr by SRB assay; conditions: OVCAR-8, 48 h
[13] = test system: RXF 393; assay: Growth inhibition of Homo sapiens (human) RXF393 cells at 10 uM after 48 hr by SRB assay; conditions: RXF 393, 48 h, read-out: GI
[14] = test system: A549; assay: Growth inhibition of Homo sapiens (human) A549/ATCC cells at 10 uM after 48 hr by SRB assay; conditions: A549, 48 h, read-out: GI
[15] = test system: ACHN; assay: Anticancer activity against Homo sapiens (human) ACHN cells after 48 hr by SRB assay
[16] = test system: NCI-H322M; assay: Anticancer activity against Homo sapiens (human) NCI-H322M cells after 48 hr by SRB assay
[17] = test system: LOX IMVI; assay: Growth inhibition of Homo sapiens (human) LOXIMVI cells at 10 uM after 48 hr by SRB assay; conditions: read-out: GI
[18] = test system: CCRF-CEM; assay: Anticancer activity against Homo sapiens (human) CCRF-CEM cells after 48 hr by SRB assay
[19] = test system: A549; assay: Anticancer activity against Homo sapiens (human) A549/ATCC cells after 48 hr by SRB assay; conditions: A549, 48 h
[20] = test system: SK-OV-3; assay: Growth inhibition of Homo sapiens (human) SKOV3 cells at 10 uM after 48 hr by SRB assay; conditions: SK-OV-3, 48 h, read-out: GI
[21] = test system: NCI-H23; assay: Anticancer activity against Homo sapiens (human) NCI-H23 cells after 48 hr by SRB assay; conditions: NCI-H23, 48 h
[22] = test system: SN12C; assay: Growth inhibition of Homo sapiens (human) SN12C cells at 10 uM after 48 hr by SRB assay; conditions: read-out: GI
[23] = test system: EKVX; assay: Anticancer activity against Homo sapiens (human) EKVX cells after 48 hr by SRB assay
[24] = test system: OVCAR-3; assay: Anticancer activity against Homo sapiens (human) OVCAR3 cells after 48 hr by SRB assay; conditions: OVCAR-3, 48 h
[25] = test system: OVCAR-4; assay: Anticancer activity against Homo sapiens (human) OVCAR4 cells after 48 hr by SRB assay; conditions: OVCAR-4, 48 h
[26] = test system: ACHN; assay: Growth inhibition of Homo sapiens (human) ACHN cells at 10 uM after 48 hr by SRB assay; conditions: read-out: GI
[27] = test system: HL-60(TB); assay: Anticancer activity against Homo sapiens (human) HL-60(TB) cells after 48 hr by SRB assay; conditions: HL-60, 48 h
[28] = test system: SR; assay: Anticancer activity against Homo sapiens (human) SR cells after 48 hr by SRB assay
[29] = test system: HOP-62; assay: Growth inhibition of Homo sapiens (human) HOP62 cells at 10 uM after 48 hr by SRB assay; conditions: HOP-62, 48 h, read-out: GI
[30] = read-out: LC50 (the source's name)

COc1ccc(OC)c(/C=C/c2nnc(Nc3ccc(Cl)cc3)o2)c1
GI50 [1]: 4.21 µM
LC50 [1]: > 100 µM
TGI [1]: > 100 µM
GI50 [2]: 21.3 µM
LC50 (50% lethal concentration) [2]: > 100 µM
TGI [2]: > 100 µM
GI50 [3]: 32.5 µM
TGI [3]: > 100 µM
CC50 [3, 30]: > 100 µM
GI50 [4]: 2.26 µM
TGI [4]: 7.94 µM
CC50 [4, 30]: > 100 µM
GI50 [5]: 7.7 µM
LC50 (50% lethal concentration) [5]: > 100 µM
TGI [5]: > 100 µM
GI50 [6]: 2.71 µM
LC50 [6]: 56.1 µM
TGI [6]: 7.92 µM
GI50 [7]: 7.6 µM
TGI [7]: 37.9 µM
CC50 [7, 30]: > 100 µM
GI50 [8]: 2.71 µM
TGI [8]: 7.68 µM
CC50 [8, 30]: 38.9 µM
GI50 [9]: 1.87 µM
LC50 [9]: > 100 µM
TGI [9]: 7.76 µM
GI50 [10]: 20.7 µM
TGI [10]: > 100 µM
CC50 [10, 30]: > 100 µM
GI50 [11]: 34.1 µM
TGI [11]: > 100 µM
CC50 [11, 30]: > 100 µM
GI50 [12]: 4.91 µM
LC50 [12]: 76.4 µM
TGI [12]: 21 µM
inhibition of growth at 10 µM [13]: 43.7%
inhibition of growth at 10 µM [14]: 59.8%
GI50 [15]: 3.29 µM
TGI [15]: 19.9 µM
CC50 [15, 30]: > 100 µM
GI50 [16]: 30.5 µM
TGI [16]: > 100 µM
CC50 [16, 30]: > 100 µM
inhibition of growth at 10 µM [17]: 32.3%
GI50 [18]: > 100 µM
TGI [18]: > 100 µM
CC50 [18, 30]: > 100 µM
GI50 [19]: 3.67 µM
TGI [19]: 17.8 µM
CC50 [19, 30]: 78.6 µM
inhibition of growth at 10 µM [20]: 67.1%
GI50 [21]: 21.7 µM
TGI [21]: > 100 µM
CC50 [21, 30]: > 100 µM
inhibition of growth at 10 µM [22]: 55.1%
GI50 [23]: 40.5 µM
TGI [23]: > 100 µM
CC50 [23, 30]: > 100 µM
GI50 [24]: 3.55 µM
LC50 [24]: > 100 µM
TGI [24]: 15.9 µM
GI50 [25]: 2.44 µM
TGI [25]: 6.76 µM
CC50 [25, 30]: > 100 µM
inhibition of growth at 10 µM [26]: 67.4%
GI50 [27]: > 100 µM
TGI [27]: > 100 µM
CC50 [27, 30]: > 100 µM
GI50 [28]: 48.2 µM
TGI [28]: > 100 µM
CC50 [28, 30]: > 100 µM
inhibition of growth at 10 µM [29]: 64.7%
